Assay results taken from paper PMC8580996, “2-Oxoglutarate derivatives can selectively enhance or inhibit the activity of human oxygenases” (Nature Communications, 2021).
Values joined by “and” are separate entries in the source; they are usually repeats but may differ in a detail not shown here. Equal entries are not always repeated.

Tests used:
[1] = molecular target: FIH (Homo sapiens, UniProt Q9NWT6); test: FIH steady-state kinetic parameters (SPE-MS, initial hydroxylation rates); format: biochemical; design: slope of initial reaction rate: unit not given here
Description: Final 2OG/2OG derivative concentrations are given in Supplementary Figs. 5 and 6. Reactions were monitored with a rate of ~1 sample/40 s using the same SPE-MS configuration as described above. Data were analyzed as described above and the slopes of the initial reaction rates (Supplementary Figs. 5 and 6) fitted to a Michaelis–Menten plot using non-linear regression (GraphPad Prism 5). […]
determine kinetic parameters for 2OG derivatives (continues on the following page). Maximum velocities (vapp ) and Michaelis constants (Kapp) of FIH were determined in independent triplicates for 2OG and the 2OG […]
SPE-MS as described in the Methods section. […]
acid (LAA), and 20 μM ammonium iron(II) sulfate hexahydrate (FAS, (NH4)2Fe(SO4)2·6H2O) in buffer (50 mM […]
Tris, 50 mM NaCl, pH 7.5, 20° C). […]
data are provided as a Source Data file. […]
concentrations of 2OG; (b) hydroxylation rates used to determine kinetic parameters of FIH for 2OG; (c) time […]
3-methyl-2OG (1); (d) hydroxylation rates used to determine kinetic parameters of FIH for 1; (e) time course of […]
2OG (12); (f) hydroxylation rates used to determine kinetic parameters of FIH for 12; (g) time course of the FIH- […]
(h) hydroxylation rates used to determine kinetic parameters of FIH for 14; (i) time course of the FIH-catalyzed […]
(carboxycarbonyl)cyclopentane-1-carboxylic acid (22); (j) hydroxylation rates used to determine kinetic parameters of FIH for 22.
Supplementary Figure 6. Hydroxylation rates of FIH-catalyzed CA1-20 hydroxylations used to determine kinetic parameters for 2OG derivatives (continues on the following page). Maximum velocities (vapp ) and […]
ammonium iron(II) sulfate hexahydrate (FAS, (NH4)2Fe(SO4)2·6H2O) in buffer (50 mM Tris, 50 mM NaCl, pH […]
Source data are provided as a Source […]
of 2OG; (b) hydroxylation rates used to determine kinetic parameters of FIH for 2OG; (c) time course of the FIH-catalyzed hydroxylation reaction of the CA1-20 peptide for the shown concentrations of 3-methyl-2OG (1); (d) hydroxylation rates used to determine kinetic parameters of FIH for 1; (e) time course of the FIH -catalyzed hydroxylation reaction of the CA 1-20 peptide for the shown concentrations of 4 -methyl-2OG (12); (f) hydroxylation rates used to determine kinetic parameters of FIH for 12; (g) time course of the FIH-catalyzed hydroxylation reaction of the CA1-20 peptide for the shown concentrations of 4-ethyl-2OG (14); (h) hydroxylation rates used to determine kinetic parameters of FIH for 14; (i) time course of the FIH-catalyzed hydroxylation reaction of the CA1-20 peptide for the shown concentrations of 3-(carboxycarbonyl)cyclopentane-1-carboxylic acid (22); (j) hydroxylation rates used to determine kinetic parameters of FIH for 22.

[2] = molecular target: T1, AspH (Homo sapiens, UniProt Q12797); settings: 0.05 μM AspH, 1.0 μM hFX-CP101-119, 3.0 μM 2OG, ref 21 (supplementary ref 1); cited from earlier work
T1 construct: the tetratricopeptide repeat domain (His6-AspH315-758), was produced and purified as previously reported; made in house
T1 sequence (Q12797 315-758): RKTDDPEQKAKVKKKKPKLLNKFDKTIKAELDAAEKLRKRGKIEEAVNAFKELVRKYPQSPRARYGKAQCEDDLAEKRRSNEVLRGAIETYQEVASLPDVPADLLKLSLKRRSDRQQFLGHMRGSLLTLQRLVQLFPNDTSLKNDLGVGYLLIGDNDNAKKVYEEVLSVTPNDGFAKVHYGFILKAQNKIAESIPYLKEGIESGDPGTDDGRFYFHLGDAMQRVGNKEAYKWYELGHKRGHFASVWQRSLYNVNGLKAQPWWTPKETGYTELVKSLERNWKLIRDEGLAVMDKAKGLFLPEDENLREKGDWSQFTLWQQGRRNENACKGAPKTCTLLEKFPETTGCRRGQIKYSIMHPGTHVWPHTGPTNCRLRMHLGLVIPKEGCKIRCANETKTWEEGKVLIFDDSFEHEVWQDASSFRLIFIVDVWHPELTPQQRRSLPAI

Chain of FIH (Q9NWT6 whole entry): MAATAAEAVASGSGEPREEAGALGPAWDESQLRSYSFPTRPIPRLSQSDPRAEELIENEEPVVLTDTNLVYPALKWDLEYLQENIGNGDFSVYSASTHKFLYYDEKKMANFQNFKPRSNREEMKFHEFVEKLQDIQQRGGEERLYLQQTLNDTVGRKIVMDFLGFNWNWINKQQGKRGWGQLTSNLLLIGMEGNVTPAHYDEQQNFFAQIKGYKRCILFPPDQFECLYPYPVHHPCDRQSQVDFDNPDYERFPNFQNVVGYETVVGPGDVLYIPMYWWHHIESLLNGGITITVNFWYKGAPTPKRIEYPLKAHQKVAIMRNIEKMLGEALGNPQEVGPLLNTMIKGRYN

Compound: CC(CC(=O)O)C(=O)C(=O)O (stereo not drawn) [compound 1, 3-methyl-2OG]
- SPE-MS determined concentration of hydroxylated HIF-1a peptide ([1]; 0.5 uM compound 1, time 2.098 min): 0.06331 µM and 0.08965 µM and 0.06287 µM
- SPE-MS determined concentration of hydroxylated HIF-1a peptide ([1]; 0.5 uM compound 1, time 2.797 min): 0.08372 µM and 0.1109 µM and 0.07695 µM
- SPE-MS determined concentration of hydroxylated HIF-1a peptide ([1]; 0.5 uM compound 1, time 3.49667 min): 0.08826 µM and 0.1256 µM and 0.08643 µM
- SPE-MS determined concentration of hydroxylated HIF-1a peptide ([1]; 1 uM compound 1, time 0.699833 min): 0.05043 µM and 0.061 µM and 0.05097 µM
- SPE-MS determined concentration of hydroxylated HIF-1a peptide ([1]; 1 uM compound 1, time 2.098 min): 0.09957 µM and 0.1098 µM and 0.1306 µM
- SPE-MS determined concentration of hydroxylated HIF-1a peptide ([1]; 1 uM compound 1, time 2.797 min): 0.1199 µM and 0.1466 µM and 0.1681 µM
- SPE-MS determined concentration of hydroxylated HIF-1a peptide ([1]; 1 uM compound 1, time 3.49667 min): 0.1336 µM
- SPE-MS determined concentration of hydroxylated HIF-1a peptide ([1]; 2 uM compound 1, time 0.699833 min): 0.07885 µM and 0.08056 µM and 0.05916 µM
- SPE-MS determined concentration of hydroxylated HIF-1a peptide ([1]; 2 uM compound 1, time 2.098 min): 0.1678 µM and 0.1886 µM and 0.1681 µM
- SPE-MS determined concentration of hydroxylated HIF-1a peptide ([1]; 2 uM compound 1, time 2.797 min): 0.2164 µM and 0.22 µM and 0.1894 µM
- SPE-MS determined concentration of hydroxylated HIF-1a peptide ([1]; 2 uM compound 1, time 3.49667 min): 0.2473 µM and 0.2744 µM and 0.2266 µM
- SPE-MS determined concentration of hydroxylated HIF-1a peptide ([1]; 4 uM compound 1, time 0.699833 min): 0.1172 µM and 0.1135 µM and 0.107 µM
- SPE-MS determined concentration of hydroxylated HIF-1a peptide ([1]; 4 uM compound 1, time 2.098 min): 0.2558 µM and 0.2656 µM and 0.234 µM
- SPE-MS determined concentration of hydroxylated HIF-1a peptide ([1]; 4 uM compound 1, time 2.797 min): 0.3116 µM and 0.3222 µM and 0.2973 µM
- SPE-MS determined concentration of hydroxylated HIF-1a peptide ([1]; 4 uM compound 1, time 3.49667 min): 0.3622 µM and 0.3831 µM and 0.3473 µM
- SPE-MS determined concentration of hydroxylated HIF-1a peptide ([1]; 8 uM compound 1, time 0.699833 min): 0.1456 µM and 0.1338 µM and 0.1272 µM
- SPE-MS determined concentration of hydroxylated HIF-1a peptide ([1]; 8 uM compound 1, time 2.098 min): 0.3135 µM and 0.3095 µM and 0.2806 µM
- SPE-MS determined concentration of hydroxylated HIF-1a peptide ([1]; 8 uM compound 1, time 2.797 min): 0.4067 µM and 0.3823 µM and 0.3379 µM
- SPE-MS determined concentration of hydroxylated HIF-1a peptide ([1]; 8 uM compound 1, time 3.49667 min): 0.4757 µM and 0.4602 µM and 0.409 µM
- SPE-MS determined concentration of hydroxylated HIF-1a peptide ([1]; 16 uM compound 1, time 0.699833 min): 0.1765 µM and 0.1666 µM and 0.1574 µM
- SPE-MS determined concentration of hydroxylated HIF-1a peptide ([1]; 16 uM compound 1, time 2.098 min): 0.4139 µM and 0.367 µM and 0.3575 µM
- SPE-MS determined concentration of hydroxylated HIF-1a peptide ([1]; 16 uM compound 1, time 2.797 min): 0.521 µM and 0.462 µM and 0.4549 µM
- SPE-MS determined concentration of hydroxylated HIF-1a peptide ([1]; 16 uM compound 1, time 3.49667 min): 0.6245 µM and 0.5486 µM and 0.5372 µM
- SPE-MS determined concentration of hydroxylated HIF-1a peptide ([1]; 32 uM compound 1, time 0.699833 min): 0.1826 µM and 0.1844 µM and 0.1573 µM
- SPE-MS determined concentration of hydroxylated HIF-1a peptide ([1]; 32 uM compound 1, time 2.098 min): 0.3964 µM and 0.4231 µM and 0.3597 µM
- SPE-MS determined concentration of hydroxylated HIF-1a peptide ([1]; 32 uM compound 1, time 2.797 min): 0.4756 µM and 0.5305 µM and 0.4654 µM
- SPE-MS determined concentration of hydroxylated HIF-1a peptide ([1]; 32 uM compound 1, time 3.49667 min): 0.5827 µM and 0.6364 µM and 0.5668 µM
- slope of initial reaction rate ([1]; CA1-20, 1 μM 1): 0.003599 and 0.003561 and 0.003828
- slope of initial reaction rate ([1]; CA1-20, 2 μM 1): 0.005878 and 0.006514 and 0.003549
- slope of initial reaction rate ([1]; CA1-20, 4 μM 1): 0.007274 and 0.005274 and 0.008096
- slope of initial reaction rate ([1]; CA1-20, 8 μM 1): 0.01215 and 0.01007 and 0.00891
- slope of initial reaction rate ([1]; HIF-1a788-822, 0.5 μM 1): 0.000467 and 0.000683 and 0.000488
- slope of initial reaction rate ([1]; HIF-1a788-822, 1 μM 1): 0.000739 and 0.000996 and 0.000679
- slope of initial reaction rate ([1]; HIF-1a788-822, 2 μM 1): 0.001185 and 0.001312 and 0.001139
- slope of initial reaction rate ([1]; HIF-1a788-822, 4 μM 1): 0.001713 and 0.001863 and 0.001678
- slope of initial reaction rate ([1]; HIF-1a788-822, 8 μM 1): 0.002198 and 0.002166 and 0.001912
- slope of initial reaction rate ([1]; HIF-1a788-822, 16 μM 1): 0.002859 and 0.002469 and 0.002609
- slope of initial reaction rate ([1]; HIF-1a788-822, 32 μM 1): 0.002446 and 0.002883 and 0.002629
- IC50 AspH [2]: inactive
